Legend:
R6/2 mice = assay: Rotarod test in R6/2 mice; format: in vivo, mouse; details: 5 mg/kg i.p. QD, 10 weeks of age, p<0.05, One-way ANOVA
Description: Study Summary—A total of 46 male R6/2 mice and 15 male wild-type littermate control mice (WT) were used in the study. The mice were genotyped and the R6/2 mice were divided into different treatment groups based on their pre-treatment body weight. The treatment with Compound (Ia) (0.5 or 5 mg/kg; 10 ml/kg, intraperitoneally (i.p.), QD) or Vehicle (10 ml/kg, i.p., QD) was started at 4 weeks of age. Body weights were measured before the treatment onset and continued twice a week until the end of the study. Fine motor kinematic analysis and rotarod test were performed at 10 weeks of age and the open field activity and clasping behavior were measured at 12 weeks of age for all mice. At 8 and 12 weeks of age the glucose uptake was measured by ^18F-FDG PET and the striatal metabolites were measured using MR spectroscopy for 9-10 mice per group. At 13 weeks of age 9-10 mice per group were subjected to tissue sample collection, and the brain and blood samples were collected. The blood samples were used to prepare peripheral blood mononuclear cells (PBMCs) on which the flow cytometry/luminescence analysis was performed for following assays: mitochondrial reactive oxygen species (ROS) (MitoSox), and ATP levels (Cell TiterGlow). […]
Rotarod Test—At 10 weeks of age all mice were subjected to rotarod test. […] The latency to fall from the rod was recorded.

[1] = Body weight of R6/2 mice under chronic treatment; format: in vivo, mouse
Description: Study Summary-A total of 46 male R6/2 mice and 15 male wild-type littermate control mice (WT) were used in the study. The mice were genotyped and the R6/2 mice were divided into different treatment groups based on their pre-treatment body weight. The treatment with Compound (Ia) (0.5 or 5 mg/kg; 10 ml/kg, intraperitoneally (i.p.), QD) or Vehicle (10 ml/kg, i.p., QD) was started at 4 weeks of age. Body weights were measured before the treatment onset and continued twice a week until the end of the study. Fine motor kinematic analysis and rotarod test were performed at 10 weeks of age and the open field activity and clasping behavior were measured at 12 weeks of age for all mice. At 8 and 12 weeks of age the glucose uptake was measured by ^18F-FDG PET and the striatal metabolites were measured using MR spectroscopy for 9-10 mice per group. At 13 weeks of age 9-10 mice per group were subjected to tissue sample collection, and the brain and blood samples were collected. The blood samples were used to prepare peripheral blood mononuclear cells (PBMCs) on which the flow cytometry/luminescence analysis was performed for following assays: mitochondrial reactive oxygen species (ROS) (MitoSox), and ATP levels (Cell TiterGlow). […] Body Weights-Body weights were measured at 4 weeks of age (pre-treatment) and twice a week until the end of the study. […]

Question: With Cc1cc(O)cc(C)c1C[C@H](NC(=O)[C@H](N)CCCNC(=N)N)C(=O)N[C@@H](CCCCN)c1nc(Cc2ccccc2)no1.Cl.Cl [Compound (Ia), (R)-2-amino-N—((S)-1-(((S)-5-amino-1-(3-benzyl-1,2,4-oxadiazol-5-yl)pentyl)amino)-3-(4-hydroxy-2,6-dimethylphenyl)-1-oxopropan-2-yl)-5-guanidinopentanamide] as the compound, how does the “latency to fall in rotarod compared to vehicle treated R6/2 mice” value (R6/2 mice) read?
Answer: increased latency

Question: What about the “body weight compared to vehicle treated R6/2 mice” value ([1]; 5 mg/kg i.p. QD) of the same compound?
Answer: non-significantly higher level

Question: And the “body weight, treated R6/2 groups vs vehicle treated R6/2 mice” value ([1]; 0.5 or 5 mg/kg i.p. QD from 4 to 13 weeks of age, p>0.05, Mixed-effects model (REML))?
Answer: no significant differences

From US20250319073A1, “COMPOSITIONS AND METHODS FOR THE TREATMENT OF HUNTINGTON’S DISEASE AND HTT PROTEINOPATHIES” (priority 2022, published 2025)
